Data from the NIST ThermoML archive (doi:10.1021/je050538q).

Experiments:
[1] = refractive index (Na D-line) (dimensionless); conditions: 298.15 K; 101.33 kPa; Liquid
[2] = Liquid
[3] = refractive index (Na D-line) (dimensionless); xn = mol fraction of the nth substance listed; conditions: 298.15 K, 101 kPa, Liquid
[4] = xn = mol fraction of the nth substance listed; conditions: 298.15 K, 101 kPa, Liquid

CCC(C)(C)O [2-methylbutan-2-ol]
Conditions	refractive index
[1]	1.4025

[2], 298.15 K, 101 kPa
Conditions	mass density [kg/m3]	viscosity [mPa·s]
–	804.98	3.645

Conditions	viscosity [mPa·s]
[2], 303.15 K, 101.33 kPa, Capillary tube (Ostwald / Ubbelohde) method	2.81

CCC(C)(C)O [2-methylbutan-2-ol] + CC(=O)N(C)C
Conditions	mass density, [4] [kg/m3]	refractive index, [3]	viscosity, [4] [mPa·s]
x2 = 0	804.98	1.4025	3.645
x2 = 0.0112	806.65	1.4031	3.6
x2 = 0.0284	809.1	1.404	3.533
x2 = 0.0423	810.93	1.4046	3.48
x2 = 0.0681	814.29	1.4058	3.381
x2 = 0.1023	818.47	1.4072	3.254
x2 = 0.1613	825.31	1.4095	3.041
x2 = 0.2112	830.81	1.4113	2.87
x2 = 0.253	835.39	1.4128	2.731
x2 = 0.2912	839.58	1.4141	2.608
x2 = 0.3366	844.6	1.4156	2.467
x2 = 0.3844	850.11	1.4171	2.325
x2 = 0.4203	854.29	1.4182	2.221
x2 = 0.4743	860.87	1.4198	2.071
x2 = 0.5864	875.18	1.423	1.78
x2 = 0.6721	886.7	1.4254	1.578
x2 = 0.7474	897.47	1.4276	1.413
x2 = 0.8321	910.06	1.4302	1.242
x2 = 0.9168	923.22	1.4329	1.086
x2 = 0.954	929.18	1.4341	1.021

CCC(C)(C)O [2-methylbutan-2-ol] + CCOC(C)=O
Conditions	mass density, [4] [kg/m3]	refractive index, [3]	viscosity, [4] [mPa·s]
x1 = 0.0279	891.15	1.3711	0.464
x1 = 0.0573	887.59	1.3723	0.508
x1 = 0.096	883.06	1.3739	0.567
x1 = 0.1672	874.97	1.3767	0.691
x1 = 0.2475	866.39	1.3798	0.85
x1 = 0.3322	857.83	1.383	1.041
x1 = 0.4168	849.81	1.3861	1.261
x1 = 0.4994	842.59	1.3891	1.503
x1 = 0.5831	835.67	1.3919	1.776
x1 = 0.6658	829.16	1.3946	2.078
x1 = 0.7486	822.86	1.397	2.412
x1 = 0.8336	816.62	1.3993	2.791
x1 = 0.9149	810.81	1.4011	3.188
x1 = 0.9445	808.73	1.4017	3.344
x1 = 0.9712	806.91	1.4021	3.486
x1 = 1	804.98	1.4025	3.645

CC(=O)N(C)C [N,N-dimethylethanamide]
Conditions	refractive index
[1]	1.4357

[2], 298.15 K, 101 kPa
Conditions	mass density [kg/m3]	viscosity [mPa·s]
–	936.7	0.945

CC(=O)N(C)C [N,N-dimethylethanamide] + CCC(C)(C)O
x1 = 1
Conditions	mass density [kg/m3]	refractive index	viscosity [mPa·s]
[3]	–	1.4357	–
[4]	936.7	–	0.945

CC(=O)N(C)C [N,N-dimethylethanamide] + CCOC(C)=O
Conditions	mass density, [4] [kg/m3]	refractive index, [3]	viscosity, [4] [mPa·s]
x1 = 0.0392	896.84	1.3731	0.442
x1 = 0.0791	898.95	1.3763	0.458
x1 = 0.156	902.75	1.3824	0.49
x1 = 0.2331	906.43	1.3883	0.523
x1 = 0.3109	909.97	1.3942	0.558
x1 = 0.3875	913.34	1.3999	0.595
x1 = 0.4646	916.63	1.4054	0.634
x1 = 0.541	919.8	1.4106	0.674
x1 = 0.6137	922.68	1.4153	0.713
x1 = 0.6931	925.71	1.4201	0.757
x1 = 0.7718	928.62	1.4246	0.803
x1 = 0.8145	930.15	1.4269	0.828
x1 = 0.8896	932.81	1.4307	0.874
x1 = 0.9558	935.14	1.4338	0.916
x1 = 1	936.7	1.4357	0.945

CCOC(C)=O [ethyl acetate]
Conditions	refractive index
[1]	1.3699

[2], 298.15 K, 101 kPa
Conditions	mass density [kg/m3]	viscosity [mPa·s]
–	894.6	0.426

CCOC(C)=O [ethyl acetate] + CC(=O)N(C)C
x2 = 0
Conditions	mass density [kg/m3]	refractive index	viscosity [mPa·s]
[3]	–	1.3699	–
[4]	894.6	–	0.426

CCOC(C)=O [ethyl acetate] + CCC(C)(C)O
x2 = 0
Conditions	mass density [kg/m3]	refractive index	viscosity [mPa·s]
[3]	–	1.3699	–
[4]	894.6	–	0.426
